Tested on: A549 cells
Assay: A549 microarray comparing macrolides with arachidonic acid pathway inhibitors, with IL-1β stimulation (Appendix C, Tables 6-9), and correlation analysis
Assay type: cell-based
From the text: One inhibitor, triacsin C, acts on AA biosynthesis by inhibiting arachidonyl CoA synthetases, blocking the incorporation of free AA into phospholipids. Triacsin C is reasonably specific for AA compared to other fatty acids. However, triacsin C structurally resembles AA so it also may interfere with other steps in the AA pathway. Indomethacin is an inhibitor of COX1 and COX2 enzyme activities and therefore specifically blocks metabolism of AA into prostaglandins. […] It inhibits transcription of PLA2, and transcriptionally and post-transcriptionally regulates COX1 and COX2 activities. Dexamethasone has additional effects unrelated to AA through binding with the glucocorticoid receptor to glucocortcoid response elements.
A549 cells were pre-incubated overnight (17 hours) with macrolides (10 μM FMA-9045, 50 μM clarithromycin, 50 μM roxithromycin, 50 μM josamycin) and 15 μM triacsin C, and pre-incubated 2 hours with 100 nM indomethacin and 100 nM dexamethasone. All cells then were stimulated for 4 hours with IL-1β, because the activation of PLA2 and downstream signaling events generally requires an inflammatory stimulus. The various treatment conditions are shown below in Table 4. Following macrolide and inhibitor pre-treatment and IL-1 stimulation, the cells were lysed, total RNA was collected, and the poly-A+ mRNA fraction was purified. The resulting microarray data (Appendix C) were analyzed using the methods described in the Examples above.
The tables in Appendix C represent the effects of the arachidonic acid pathway inhibitors (“AA pathway inhibitors”) and the effects of the macrolides (“IL1+macrolide effects”). […] In both tables in Appendix C, the genes that meet this criterion (≧1.3 min fold change) are indicated in bold.
Quantitative analysis was done to determine how well the responses to the different AA pathway inhibitors correlated. The correlation values were assigned a p-value to provide statistical confidence to the correlation value. Correlation between experiments, across all spots showing good detection, was assessed by cosine vector angle to generate the data shown in Tables 7-9. A correlation coefficient close to one indicates strong correlation, whereas a value near zero indicates no correlation. P-values for each correlation coefficient were estimated based on a Fisher permutation test. In this test, each spot's expression ratios were randomly re-ordered across experiments and the degree of correlation between experiments was then reassessed. This was done repeatedly.

[1] = A549 cells, +IL1b +/- inhibitor

COc1ccc2c(c1)c(CC(=O)O)c(C)n2C(=O)c1ccc(Cl)cc1 [indomethacin] was tested, and the “Number of differentially expressed genes also differential in response to triacsin C” value (A549 + IL-1β, of the genes regulated by the labelled drug) was 36, the “Total # Differential Genes (95% confidence)” value (A549, IL1 vs IL1 + drug, threshold 1.3, macrolides 50 μM (FMA 10 μM), triacsin C 15 μM, indomethacin and dexamethasone 100 nM) was 37 and the “min fold change, SpotID 46796 STC1 (stanniocalcin 1)” value [1] was 1.34. The “min fold change, SpotID 46950 SERPINA3 (serine (or cysteine) proteinase inhibitor, clade A, member 3)” value [1] was 1.28, the “min fold change, SpotID 46985 RIPK2 (RIP2, RICK; receptor-interacting serine-threonine kinase 2)” value [1] was 1.85 and the “min fold change, SpotID 47155 TNFAIP6 (tumor necrosis factor, alpha-induced protein 6)” value [1] was 1.17. For the same compound, the “min fold change, SpotID 47166 SERPINA6 (serine (or cysteine) proteinase inhibitor, clade A, member 6)” value [1] was 1.05, the “min fold change, SpotID 47193 STAT3 (signal transducer and activator of transcription 3)” value [1] was 1.25 and the “min fold change, SpotID 47332 SERPINB3 (serine (or cysteine) proteinase inhibitor, clade B (ovalbumin), member 3)” value [1] was 1.25. For the same compound, the “min fold change, SpotID 47444 TKT (transketolase (Wernicke-Korsakoff syndrome))” value [1] was 1.00, the “min fold change, SpotID 47569 STAT3 (signal transducer and activator of transcription 3)” value [1] was 1.69 and the “min fold change, SpotID 47697 TNFRSF6B (DcR3; tumor necrosis factor receptor superfamily, member 6b, decoy)” value [1] was 1.52. For the same compound, the “min fold change, SpotID 47698 PTPRJ (protein tyrosine phosphatase, receptor type, J)” value [1] was 1.31, the “min fold change, SpotID 47987 THBS1 (thrombospondin 1)” value [1] was 1.32 and the “min fold change, SpotID 48050 RPS6KA2 (ribosomal protein S6 kinase, 90 kD, polypeptide 2)” value [1] was 1.00. For the same compound, the “min fold change, SpotID 48234 PTPRZ1 (PTP zeta; protein tyrosine phosphatase, receptor-type, Z polypeptide 1)” value [1] was 1.48, the “min fold change, SpotID 48239 TLN1 (talin 1)” value [1] was 1.51 and the “min fold change, SpotID 48288 TRAF5 (TNF receptor-associated factor 5)” value [1] was 1.40. The “min fold change, SpotID 48359 RIPK1 (receptor (TNFRSF)-interacting serine-threonine kinase 1)” value [1] was 1.00, the “min fold change, SpotID 48392 RIPK1 (receptor (TNFRSF)-interacting serine-threonine kinase 1)” value [1] was 1.00 and the “min fold change, SpotID 48395 TNFRSF7 (CD27; tumor necrosis factor receptor superfamily, member 7)” value [1] was 1.55. For the same compound, the “min fold change, SpotID 48485 UCP1 (uncoupling protein 1 (mitochondrial, proton carrier))” value [1] was 1.32, the “min fold change, SpotID 48500 RPL13A (ribosomal protein L13a)” value [1] was 1.06 and the “min fold change, SpotID 48594 RPS6KA2 (ribosomal protein S6 kinase, 90 kD, polypeptide 2)” value [1] was 1.03. For the same compound, the “min fold change, SpotID 48603 TEAD4 (TEA domain family member 4)” value [1] was 1.72, the “min fold change, SpotID 49330 TNFRSF7 (CD27; tumor necrosis factor receptor superfamily, member 7)” value [1] was 1.44 and the “min fold change, SpotID 49899 WWOX (WW domain containing oxidoreductase)” value [1] was 1.00. For the same compound, the “min fold change, SpotID 49901 TROAP (trophinin associated protein (tastin))” value [1] was 1.01, the “min fold change, SpotID 50379 TNFRSF6 (FAS; tumor necrosis factor receptor superfamily, member 6)” value [1] was 1.38 and the “min fold change, SpotID 50428 RPLP0 (ribosomal protein, large, P0)” value [1] was 1.00. The “min fold change, SpotID 50491 TNFRSF6B (DcR3; tumor necrosis factor receptor superfamily, member 6b, decoy)” value [1] was 1.17, the “wtd means, SpotID 46796 STC1 (stanniocalcin 1)” value [1] was 1.47 and the “wtd means, SpotID 46950 SERPINA3 (serine (or cysteine) proteinase inhibitor, clade A, member 3)” value [1] was 1.41. The “wtd means, SpotID 46985 RIPK2 (RIP2, RICK; receptor-interacting serine-threonine kinase 2)” value [1] was 2.23, the “wtd means, SpotID 47155 TNFAIP6 (tumor necrosis factor, alpha-induced protein 6)” value [1] was 1.23 and the “wtd means, SpotID 47166 SERPINA6 (serine (or cysteine) proteinase inhibitor, clade A, member 6)” value [1] was 1.66. The “wtd means, SpotID 47193 STAT3 (signal transducer and activator of transcription 3)” value [1] was 1.64, the “wtd means, SpotID 47332 SERPINB3 (serine (or cysteine) proteinase inhibitor, clade B (ovalbumin), member 3)” value [1] was 1.33 and the “wtd means, SpotID 47444 TKT (transketolase (Wernicke-Korsakoff syndrome))” value [1] was 0.82. The “wtd means, SpotID 47569 STAT3 (signal transducer and activator of transcription 3)” value [1] was 2.00, the “wtd means, SpotID 47697 TNFRSF6B (DcR3; tumor necrosis factor receptor superfamily, member 6b, decoy)” value [1] was 1.84 and the “wtd means, SpotID 47698 PTPRJ (protein tyrosine phosphatase, receptor type, J)” value [1] was 1.38. The “wtd means, SpotID 47987 THBS1 (thrombospondin 1)” value [1] was 0.68, the “wtd means, SpotID 48234 PTPRZ1 (PTP zeta; protein tyrosine phosphatase, receptor-type, Z polypeptide 1)” value [1] was 1.77 and the “wtd means, SpotID 48239 TLN1 (talin 1)” value [1] was 1.57. The “wtd means, SpotID 48288 TRAF5 (TNF receptor-associated factor 5)” value [1] was 1.96, the “wtd means, SpotID 48359 RIPK1 (receptor (TNFRSF)-interacting serine-threonine kinase 1)” value [1] was 1.34 and the “wtd means, SpotID 48392 RIPK1 (receptor (TNFRSF)-interacting serine-threonine kinase 1)” value [1] was 1.35. For the same compound, the “wtd means, SpotID 48395 TNFRSF7 (CD27; tumor necrosis factor receptor superfamily, member 7)” value [1] was 1.76, the “wtd means, SpotID 48485 UCP1 (uncoupling protein 1 (mitochondrial, proton carrier))” value [1] was 1.70 and the “wtd means, SpotID 48500 RPL13A (ribosomal protein L13a)” value [1] was 1.23. The “wtd means, SpotID 48603 TEAD4 (TEA domain family member 4)” value [1] was 2.19, the “wtd means, SpotID 49330 TNFRSF7 (CD27; tumor necrosis factor receptor superfamily, member 7)” value [1] was 1.90 and the “wtd means, SpotID 49899 WWOX (WW domain containing oxidoreductase)” value [1] was 1.07. For the same compound, the “wtd means, SpotID 49901 TROAP (trophinin associated protein (tastin))” value [1] was 0.93, the “wtd means, SpotID 50379 TNFRSF6 (FAS; tumor necrosis factor receptor superfamily, member 6)” value [1] was 1.57 and the “wtd means, SpotID 50428 RPLP0 (ribosomal protein, large, P0)” value [1] was 0.77. For the same compound, the “wtd means, SpotID 50491 TNFRSF6B (DcR3; tumor necrosis factor receptor superfamily, member 6b, decoy)” value [1] was 1.60 and the FADS1 expression (A549 cells, microarray) was “not”.
